A short description of this data set: Hygroscopicity: exposure to air on a balance for three days. Conditions: exposed to air on a balance. In kind it is physicochemical. The text has this:
A mechanical mixture of 10 gm. of dry, solid isopropylammonium glyphosate and 20 gm. of dry, solid ammonium pelargonate was made by thoroughly grinding and mixing the two solids to assure a homogeneous powder. The resulting 30 gm. was exposed to the air in a weighing dish on a balance to determine if the mixture was hygroscopic or dry. […] To this mixture was further added 3 gm. of powdered 85% potassium hydroxide and the solids again thoroughly mixed. This solid mixture contained the equivalent of 30% isopropylammonium glyphosate and 60% ammonium pelargonate, being a solid enhanced glyphosate herbicide concentrate.
A 50 gm. portion of a 53.8% glyphosate solution as the isopropylammonium salt (Monsanto Aquamaster®) was placed in a glass shallow evaporating dish. To this was added 10 gm. of 28-30% ammonium hydroxide and the solution thoroughly mixed by slowly tilting the dish. The dish was then exposed to air at ambient conditions for 2 weeks during which time the water evaporated off leaving a white crystalline solid weighing 38.9 gm. […] By the method it was prepared and the yield obtained it was determined to be the mixed salt ammonium, (isopropylammonium)glyphosate. The melting point was 200-205° C. (isopropyl ammonium glyphosate melts at 155-158° C.) The FT-IR spectrum in KBr is: […]

As for ammonium, (isopropylammonium)glyphosate, the “Hygroscopicity (weight change on exposure to air)” value is “non-hygroscopic”.

(Values after patent US7223718B2, “Enhanced glyphosate herbicidal concentrates” (Falcon Lab LLC, priority 2005, dated 2007).)
